Test results published in ChEMBL document CHEMBL1158312, “Cytotoxic triterpenes from a marine sponge, Stelletta sp” (J Nat Prod, 1996).
The source made the active and inactive calls. No cut-off for these calls is given here.

How the values were obtained:
[1] = target: T1, Retinoic acid receptor RXR-alpha (Mus musculus) (UniProt P28700); experiment: Antagonist activity at mouse RXRalpha assessed as inhibition of 9-cis-retinoic acid-induced response by differential proteolytic sensitivity assay; type: functional
T1 sequence (whole entry): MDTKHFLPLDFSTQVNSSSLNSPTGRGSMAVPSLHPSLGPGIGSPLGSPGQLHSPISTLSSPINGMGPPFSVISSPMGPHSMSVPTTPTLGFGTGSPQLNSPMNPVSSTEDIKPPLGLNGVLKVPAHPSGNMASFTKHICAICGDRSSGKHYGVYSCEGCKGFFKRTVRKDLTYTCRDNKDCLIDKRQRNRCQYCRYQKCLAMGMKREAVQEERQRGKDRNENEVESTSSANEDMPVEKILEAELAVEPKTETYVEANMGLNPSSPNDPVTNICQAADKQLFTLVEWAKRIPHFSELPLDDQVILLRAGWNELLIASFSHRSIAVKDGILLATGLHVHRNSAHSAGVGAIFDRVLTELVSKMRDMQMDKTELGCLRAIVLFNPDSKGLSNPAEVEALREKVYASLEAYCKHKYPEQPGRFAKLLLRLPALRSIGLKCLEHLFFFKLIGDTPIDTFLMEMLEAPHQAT

[2] = target: T2, Retinoic acid receptor RXR-alpha (Homo sapiens) (UniProt P19793); experiment: Binding affinity to human RXRalpha assessed as induction of receptor conformational change at 1 uM
T2 sequence (whole entry): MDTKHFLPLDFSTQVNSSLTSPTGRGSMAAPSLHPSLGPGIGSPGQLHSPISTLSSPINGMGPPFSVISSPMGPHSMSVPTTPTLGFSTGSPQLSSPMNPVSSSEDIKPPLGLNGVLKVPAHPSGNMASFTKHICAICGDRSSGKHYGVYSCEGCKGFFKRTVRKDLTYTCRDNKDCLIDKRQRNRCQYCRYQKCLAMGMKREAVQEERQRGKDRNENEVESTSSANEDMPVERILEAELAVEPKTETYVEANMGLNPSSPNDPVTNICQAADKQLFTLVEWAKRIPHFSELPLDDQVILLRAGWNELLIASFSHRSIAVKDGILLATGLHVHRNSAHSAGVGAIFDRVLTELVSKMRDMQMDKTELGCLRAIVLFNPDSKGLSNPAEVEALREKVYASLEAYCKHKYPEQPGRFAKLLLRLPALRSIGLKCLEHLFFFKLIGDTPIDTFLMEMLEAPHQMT

[3] = target: T1, Retinoic acid receptor RXR-alpha (Mus musculus); experiment: Binding affinity to mouse RXRalpha assessed as induction of receptor conformational change at 1 uM

| Activity [1] | Activity [2] | Activity [3] | SMILES |
| --- | --- | --- | --- |
| inactive | inactive | inactive | CC(/C=C/C=C(\C)c1ccc(C)c(=O)o1)=C1/C(=O)C[C@H]2[C@@]3(C)CCC(=O)C(C)(C)[C@@H]3CC[C@]12C |
| inactive | inactive | inactive | C/C(=C/C=C/C(C)=C/C=C/C(C)=C1\C(=O)C[C@H]2[C@@]3(C)CCC(=O)C(C)(C)[C@@H]3CC[C@]12C)C(=O)O |
